How the values were obtained:
VIOTR [1] = assay: Post-emergence herbicidal action against VIOTR; type: in vivo, Viola tricolor
Method in brief: (§1)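 Greenhouse pot plants in sandy loam were sprayed at the one-leaf stage, 2 to 3 weeks after sowing, with WP or EC formulations as aqueous suspension or emulsion (600 to 800 l/ha water, 0.2% wetting agent). About 3 weeks later, damage was scored visually against untreated controls as % action (100% = dead, 0% = like control).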

ABUTH [2] = assay: Pre-emergence herbicidal action against ABUTH; type: in vivo, Abutilon theophrasti; conditions: for Pre-emergence action against ABUTH (herbicidal activity): 80 g/ha, scored visually after 3 weeks vs untreated controls (100% = plants have died, 0% = like control plants); for Pre-emergence action against ABUTH (herbicidal activity in percent): dosage 20 g/ha, scored visually after 3 weeks vs untreated controls, 100% = plants have died, 0% = like control plants
Method in brief: (§2)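 Visual rating at 3 weeks vs untreated pots; 0–100% scale, 100% = plants died. Treatment: aqueous WP/EC spray onto covering soil, 600–800 l/ha, 0.2% wetter, seeds in sandy loam.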

STEME [3] = assay: Pre-emergence herbicidal action against STEME; type: in vivo, Stellaria media
Method in brief: as §2

AMARE [4] = assay: Post-emergence herbicidal action against AMARE; type: in vivo, Amaranthus retroflexus; conditions: 20 g/ha, visual assessment about 3 weeks after treatment, 100% = plants have died, 0% = like control plants
Method in brief: as §1

STEME [5] = assay: Post-emergence herbicidal action against STEME; type: in vivo, Stellaria media
Protocol: Seeds of monocotyledonous and dicotyledonous weed and crop plants are laid out in sandy loam soil in wood-fiber pots, covered with soil and cultivated in a greenhouse under good growth conditions. 2 to 3 weeks after sowing, the test plants are treated at the one-leaf stage. The compounds of the invention, formulated in the form of wettable powders (WP) or as emulsion concentrates (EC), are then sprayed onto the green parts of the plants in the form of an aqueous suspension or emulsion at a water application rate equivalent to 600 to 800 l/ha, with addition of 0.2% wetting agent. After the test plants have been left to stand in the greenhouse under optimal growth conditions for about 3 weeks, the action of the preparations is assessed visually in comparison to untreated controls (herbicidal action in percent (%): 100% activity=the plants have died, 0% activity=like control plants). […] The tables below illustrate, in an illustrative manner, the post-emergence herbicidal action of the compounds of the invention, the herbicidal activity being stated in percent.

AVEFA [6] = assay: Pre-emergence herbicidal action against AVEFA; type: in vivo, Avena fatua; conditions: 80 g/ha, pre-emergence
Method in brief: as §2

AMARE [7] = assay: Pre-emergence herbicidal action against AMARE; type: in vivo, Amaranthus retroflexus
Method in brief: as §2

VIOTR [8] = assay: Pre-emergence herbicidal action against VIOTR; type: in vivo, Viola tricolor
Method in brief: as §2

MATIN [9] = assay: Pre-emergence herbicidal action against MATIN; type: in vivo, Matricaria inodora
Method in brief: as §2

PHBPU = assay: Post-emergence herbicidal action against PHBPU; type: in vivo, Pharbitis purpurea
Method in brief: as §1

DIGSA [10] = assay: Post-emergence herbicidal action against DIGSA; type: in vivo, Digitaria sanguinalis; conditions: for Post-emergence action against DIGSA in %: 5 g/ha; for Post-emergence action against DIGSA: 20 g/ha
Method in brief: as §1

ALOMY [11] = assay: Post-emergence herbicidal action against ALOMY; type: in vivo, Alopecurus myosuroides; conditions: dosage 20 g/ha, visual assessment about 3 weeks after treatment vs untreated controls
Method in brief: as §1

ECHCG [12] = assay: Post-emergence herbicidal action against ECHCG; type: in vivo, Echinochloa crus-galli
Method in brief: as §1

ECHCG [13] = assay: Pre-emergence herbicidal action against ECHCG; type: in vivo, Echinochloa crus-galli; conditions: 80 g/ha
Method in brief: as §2

VERPE [14] = assay: Post-emergence herbicidal action against VERPE; type: in vivo, Veronica persica; conditions: 20 g/ha
Method in brief: as §1

DIGSA [15] = assay: Pre-emergence herbicidal action against DIGSA; type: in vivo, Digitaria sanguinalis
Method in brief: as §2

ABUTH [16] = assay: Post-emergence herbicidal action against ABUTH; type: in vivo, Abutilon theophrasti; conditions: visual assessment about 3 weeks after treatment vs untreated controls
Method in brief: as §1

SETVI [17] = assay: Post-emergence herbicidal action against SETVI; type: in vivo, Setaria viridis
Method in brief: as §1

MATIN [18] = assay: Post-emergence herbicidal action against MATIN; type: in vivo, Matricaria inodora; conditions: dosage 20 g/ha
Method in brief: as §1

SETVI [19] = assay: Pre-emergence herbicidal action against SETVI; type: in vivo, Setaria viridis; conditions: dosage 80 g/ha
Method in brief: as §2

VERPE [20] = assay: Pre-emergence herbicidal action against VERPE; type: in vivo, Veronica persica; conditions: dosage 80 g/ha
Method in brief: as §2

AVEFA [21] = assay: Post-emergence herbicidal action against AVEFA; type: in vivo, Avena fatua; conditions: 20 g/ha, visual assessment about 3 weeks after treatment, 100% = plants have died, 0% = like control plants
Method in brief: as §1

POLCO = assay: Pre-emergence herbicidal action against POLCO; type: in vivo, Polygonum convolvulus; conditions: dosage 80 g/ha
Method in brief: as §2

ALOMY [22] = assay: Pre-emergence herbicidal action against ALOMY; type: in vivo, Alopecurus myosuroides; conditions: 80 g/ha, pre-emergence, scored visually after 3 weeks vs untreated controls (100% = plants have died, 0% = like control plants)
Method in brief: as §2

[23] = 20 g/ha, scored visually after 3 weeks vs untreated controls, 100% = plants have died, 0% = like control plants
[24] = 80 g/ha, scored visually after 3 weeks vs untreated controls (100% = plants have died, 0% = like control plants)

SMILES | Post-emergence action against VIOTR in % (VIOTR [1]; 20 g/ha) [%] | Pre-emergence action against ABUTH (herbicidal activity) (ABUTH [2]) [%] | Pre-emergence action against STEME in % (STEME [3]; dosage 20 g/ha) [%] | Pre-emergence action against STEME in % (STEME [3]; dosage 80 g/ha) [%] | Post-emergence action at 20 g/ha against AMARE in % (AMARE [4]) [%] | Post-emergence action against STEME in % (STEME [5]; 20 g/ha) [%] | Pre-emergence action against AMARE in % (AMARE [7]; [23]) [%] | Pre-emergence action against AMARE in % (AMARE [7]; [24]) [%] | Pre-emergence action against VIOTR in % (VIOTR [8]; dosage 80 g/ha) [%] | Pre-emergence action against MATIN in % (MATIN [9]; dosage 20 g/ha) [%] | Pre-emergence action against MATIN in % (MATIN [9]; dosage 80 g/ha) [%] | Post-emergence action against DIGSA in % (DIGSA [10]) [%] | Post-emergence action against DIGSA (DIGSA [10]) [%] | Pre-emergence action against ABUTH (herbicidal activity in percent) (ABUTH [2]) [%] | Post-emergence action against ALOMY in % (ALOMY [11]) [%] | Pre-emergence action against ECHCG in % (ECHCG [13]) [%] | Pre-emergence action against DIGSA in % (DIGSA [15]; dosage 20 g/ha) [%] | Pre-emergence action against DIGSA in % (DIGSA [15]; dosage 80 g/ha) [%] | Post-emergence action against ABUTH in % (ABUTH [16]; dosage 5 g/ha) [%] | Post-emergence action against ABUTH in % (ABUTH [16]; dosage 20 g/ha) [%] | also measured
CCn1nnnc1NC(=O)c1ccc(S(C)(=O)=O)c(C(=O)NC2CC2)c1Cl [Example 2-125] | 100 | 100 | 80 | 100 | 80 | 80 | 80 | 100 | 100 | 80 | 100 | – | – | – | – | – | – | – | – | – | Post-emergence action against VIOTR in % (VIOTR [1]; 5 g/ha): 100%; Pre-emergence action against AVEFA in % (AVEFA [6]): 100%
CNC(=O)c1c(C(F)(F)F)ccc(C(=O)Nc2nnco2)c1SC [Example 5-58] | 80 | 100 | 100 | 100 | 90 | 90 | 100 | 100 | 100 | 90 | 100 | 90 | 100 | 90 | 80 | 90 | 90 | 100 | 90 | 90 | Post-emergence action against PHBPU in % (PHBPU; dosage 5 g/ha): 80%; Post-emergence action against PHBPU in % (PHBPU; dosage 20 g/ha): 90%; Post-emergence action against VIOTR in % (VIOTR [1]; 5 g/ha): 80%; Post-emergence action against ECHCG in % (ECHCG [12]; dosage 5 g/ha): 80%; Post-emergence action against ECHCG in % (ECHCG [12]; dosage 20 g/ha): 90%; Post-emergence action against STEME in % (STEME [5]; dosage 5 g/ha): 90%; Post-emergence action against VERPE in % (VERPE [14]): 80%; Pre-emergence action against AVEFA in % (AVEFA [6]): 80%; Post-emergence action against SETVI in % (SETVI [17]; dosage 5 g/ha): 80%; Post-emergence action against SETVI in % (SETVI [17]; dosage 20 g/ha): 100%; Post-emergence action against MATIN in % (MATIN [18]): 80%; Pre-emergence action against VIOTR in % (VIOTR [8]; dosage 20 g/ha): 90%; Pre-emergence action against SETVI in % (SETVI [19]): 100%; Pre-emergence action against VERPE in % (VERPE [20]): 80%
CCNC(=O)c1c(C(F)F)ccc(C(=O)Nc2nnco2)c1SC [Example 5-75] | 80 | 100 | 100 | 100 | 90 | 100 | 100 | 100 | 100 | 80 | 100 | 90 | 90 | 100 | 80 | 100 | 100 | 100 | 90 | 90 | Post-emergence action against PHBPU in % (PHBPU; dosage 5 g/ha): 80%; Post-emergence action against PHBPU in % (PHBPU; dosage 20 g/ha): 80%; Post-emergence action against ECHCG in % (ECHCG [12]; dosage 5 g/ha): 80%; Post-emergence action against ECHCG in % (ECHCG [12]; dosage 20 g/ha): 80%; Post-emergence action against STEME in % (STEME [5]; dosage 5 g/ha): 90%; Post-emergence action against SETVI in % (SETVI [17]; dosage 5 g/ha): 80%; Post-emergence action against SETVI in % (SETVI [17]; dosage 20 g/ha): 80%; Post-emergence action against MATIN in % (MATIN [18]): 80%; Post-emergence action at 20 g/ha against AVEFA in % (AVEFA [21]): 80%; Pre-emergence action against VIOTR in % (VIOTR [8]; dosage 20 g/ha): 100%; Pre-emergence action against SETVI in % (SETVI [19]): 100%; Pre-emergence action against VERPE in % (VERPE [20]): 90%
CCNC(=O)c1c(C(F)F)ccc(C(=O)Nc2nnc(C)o2)c1C [Example 6-32] | – | 80 | – | 90 | 100 | 80 | 80 | 100 | – | – | 90 | 80 | 80 | – | – | 90 | 90 | 100 | 80 | 80 | Post-emergence action against SETVI in % (SETVI [17]; dosage 20 g/ha): 80%; Pre-emergence action against POLCO in % (POLCO): 80%
Cc1nnc(NC(=O)c2ccc(C(F)(F)F)c(C(=O)NC3CC3)c2Cl)o1 [Example 6-118] | 80 | 100 | 90 | 100 | 100 | 100 | 80 | 100 | 90 | 90 | 100 | 100 | 100 | 100 | 80 | 100 | 90 | 100 | 80 | 90 | Post-emergence action against ECHCG in % (ECHCG [12]; dosage 20 g/ha): 90%; Pre-emergence action against AVEFA in % (AVEFA [6]): 90%; Pre-emergence action against ALOMY (herbicidal activity) (ALOMY [22]): 100%; Post-emergence action against MATIN in % (MATIN [18]): 80%; Pre-emergence action against POLCO in % (POLCO): 80%; Pre-emergence action against VIOTR in % (VIOTR [8]; dosage 20 g/ha): 90%; Pre-emergence action against SETVI in % (SETVI [19]): 100%
CCc1c(C(=O)Nc2nnc(C)o2)ccc(C(F)(F)F)c1C(=O)NC1CC1 [Example 6-212] | – | 90 | 80 | 90 | 90 | 90 | 90 | 90 | – | 80 | 90 | 80 | 90 | 80 | 80 | 90 | 100 | 100 | 80 | 90 | Post-emergence action against ECHCG in % (ECHCG [12]; dosage 5 g/ha): 90%; Post-emergence action against ECHCG in % (ECHCG [12]; dosage 20 g/ha): 90%; Post-emergence action against STEME in % (STEME [5]; dosage 5 g/ha): 80%; Post-emergence action against SETVI in % (SETVI [17]; dosage 20 g/ha): 80%; Pre-emergence action against ALOMY (herbicidal activity) (ALOMY [22]): 80%; Pre-emergence action against SETVI in % (SETVI [19]): 90%

From US12655116B2, “Substituted isophthalic acid diamides” (Bayer Aktiengesellschaft, priority 2020, dated 2026)
